Data as given in the NIST ThermoML archive (doi:10.1016/j.fluid.2018.10.006).

Conditions: Fluid (supercritical or subcritical phases), Coaxial cylinder method

CCCCCC [hexane]
Conditions | thermal conductivity [W/m/K]
508.92 K, 3088 kPa | 0.1061
508.92 K, 3089 kPa | 0.1087
508.92 K, 3090 kPa | 0.1096
508.92 K, 3091 kPa | 0.11
508.92 K, 3092 kPa | 0.1093
508.92 K, 3093 kPa | 0.1071
508.92 K, 3094 kPa | 0.1049
508.92 K, 3095 kPa | 0.1028
508.92 K, 3096 kPa | 0.101
508.92 K, 3097 kPa | 0.09872
508.92 K, 3098 kPa | 0.0967
508.92 K, 3099 kPa | 0.0947
508.92 K, 3100 kPa | 0.09356
508.92 K, 3101 kPa | 0.09223
508.92 K, 3102 kPa | 0.09134
508.92 K, 3103 kPa | 0.09045
508.92 K, 3104 kPa | 0.08916
508.92 K, 3105 kPa | 0.08837
508.92 K, 3106 kPa | 0.08751
508.92 K, 3107 kPa | 0.08708
508.92 K, 3108 kPa | 0.08666
508.92 K, 3109 kPa | 0.08604
508.92 K, 3110 kPa | 0.08542
508.92 K, 3111 kPa | 0.08502
508.92 K, 3112 kPa | 0.08462
508.92 K, 3113 kPa | 0.08398
508.92 K, 3114 kPa | 0.08318
508.92 K, 3115 kPa | 0.08318
508.92 K, 3120 kPa | 0.08124
508.92 K, 3125 kPa | 0.07976
508.92 K, 3130 kPa | 0.07868
508.92 K, 3135 kPa | 0.07761
508.92 K, 3140 kPa | 0.07664
508.92 K, 3145 kPa | 0.07595
508.92 K, 3150 kPa | 0.07561
508.92 K, 3155 kPa | 0.07461
508.92 K, 3159 kPa | 0.07461
508.92 K, 3160 kPa | 0.07429
508.92 K, 3165 kPa | 0.07396
508.92 K, 3170 kPa | 0.07364
508.92 K, 3175 kPa | 0.07309
508.92 K, 3180 kPa | 0.07309
508.92 K, 3185 kPa | 0.07278
508.92 K, 3190 kPa | 0.07248
508.92 K, 3195 kPa | 0.07217
508.92 K, 3200 kPa | 0.07227
508.92 K, 3205 kPa | 0.07189
508.92 K, 3215 kPa | 0.07157
508.92 K, 3220 kPa | 0.07128
508.92 K, 3225 kPa | 0.07128
508.92 K, 3230 kPa | 0.07107
508.92 K, 3235 kPa | 0.07101
508.92 K, 3240 kPa | 0.07092
508.92 K, 3245 kPa | 0.07081
508.92 K, 3250 kPa | 0.07098
508.92 K, 3255 kPa | 0.07098
508.92 K, 3260 kPa | 0.07098
508.92 K, 3265 kPa | 0.07069
508.92 K, 3270 kPa | 0.07069
508.92 K, 3275 kPa | 0.07069
508.92 K, 3280 kPa | 0.07069
508.92 K, 3285 kPa | 0.07069
508.92 K, 3290 kPa | 0.0704
508.92 K, 3295 kPa | 0.0704
508.92 K, 3300 kPa | 0.0704
508.92 K, 3310 kPa | 0.0704
508.92 K, 3320 kPa | 0.07069
508.92 K, 3330 kPa | 0.07069
508.92 K, 3340 kPa | 0.07069
508.92 K, 3350 kPa | 0.0707
508.92 K, 3355 kPa | 0.07041
508.92 K, 3360 kPa | 0.07041
508.92 K, 3365 kPa | 0.07041
508.92 K, 3370 kPa | 0.07041
508.92 K, 3375 kPa | 0.07041
508.92 K, 3380 kPa | 0.07041
508.92 K, 3385 kPa | 0.07041
508.92 K, 3390 kPa | 0.07013
508.92 K, 3395 kPa | 0.07013
508.92 K, 3500 kPa | 0.07013
508.92 K, 3535 kPa | 0.07013
508.92 K, 3540 kPa | 0.07013
508.92 K, 3545 kPa | 0.06984
508.92 K, 3550 kPa | 0.07041
508.92 K, 3555 kPa | 0.07041
508.92 K, 3560 kPa | 0.07041
508.92 K, 3565 kPa | 0.07041
508.92 K, 3570 kPa | 0.07041
508.92 K, 3605 kPa | 0.06984
508.92 K, 3670 kPa | 0.06984
508.92 K, 3690 kPa | 0.06984
508.92 K, 3700 kPa | 0.0707
508.92 K, 3900 kPa | 0.0707
508.92 K, 4000 kPa | 0.0707
508.92 K, 4300 kPa | 0.07129
508.92 K, 4400 kPa | 0.07159
508.92 K, 4500 kPa | 0.07188
508.92 K, 4600 kPa | 0.07219
508.92 K, 4700 kPa | 0.07219
508.92 K, 4800 kPa | 0.0725
508.92 K, 4900 kPa | 0.0725
508.92 K, 5000 kPa | 0.0728
508.92 K, 5100 kPa | 0.0728
508.92 K, 5200 kPa | 0.07342
508.92 K, 5300 kPa | 0.07342
508.92 K, 5400 kPa | 0.07342
508.92 K, 5500 kPa | 0.07373
508.92 K, 5600 kPa | 0.07437
508.92 K, 5800 kPa | 0.07437
508.92 K, 6000 kPa | 0.07437
508.92 K, 6100 kPa | 0.07437
508.92 K, 6200 kPa | 0.07469
508.92 K, 6400 kPa | 0.07501
508.92 K, 6500 kPa | 0.07534
508.92 K, 7000 kPa | 0.07634
508.92 K, 7500 kPa | 0.07702
508.92 K, 8000 kPa | 0.07771
508.92 K, 8500 kPa | 0.07771
508.92 K, 9000 kPa | 0.07828
508.92 K, 9500 kPa | 0.07915
508.92 K, 10000 kPa | 0.07951
509.85 K, 2686 kPa | 0.04642
509.85 K, 2700 kPa | 0.04668
509.85 K, 2710 kPa | 0.04655
509.85 K, 2720 kPa | 0.04706
509.85 K, 2730 kPa | 0.0472
509.85 K, 2740 kPa | 0.04733
509.85 K, 2750 kPa | 0.04759
509.85 K, 2760 kPa | 0.04786
509.85 K, 2770 kPa | 0.04813
509.85 K, 2780 kPa | 0.04827
509.85 K, 2790 kPa | 0.04841
509.85 K, 2800 kPa | 0.04854
509.85 K, 2805 kPa | 0.04868
509.85 K, 2810 kPa | 0.04882
509.85 K, 2815 kPa | 0.0491
509.85 K, 2820 kPa | 0.04925
509.85 K, 2825 kPa | 0.04939
509.85 K, 2830 kPa | 0.04953
509.85 K, 2835 kPa | 0.04968
509.85 K, 2840 kPa | 0.04957
509.85 K, 2845 kPa | 0.04972
509.85 K, 2850 kPa | 0.04986
509.85 K, 2855 kPa | 0.05001
509.85 K, 2860 kPa | 0.05016
509.85 K, 2865 kPa | 0.05031
509.85 K, 2870 kPa | 0.05046
509.85 K, 2875 kPa | 0.05061
509.85 K, 2880 kPa | 0.05077
509.85 K, 2885 kPa | 0.05123
509.85 K, 2890 kPa | 0.05123
509.85 K, 2895 kPa | 0.05139
509.85 K, 2900 kPa | 0.05154
509.85 K, 2905 kPa | 0.0517
509.85 K, 2910 kPa | 0.05186
509.85 K, 2915 kPa | 0.05218
509.85 K, 2920 kPa | 0.05243
509.85 K, 2925 kPa | 0.05259
509.85 K, 2930 kPa | 0.05293
509.85 K, 2935 kPa | 0.05309
509.85 K, 2940 kPa | 0.05326
509.85 K, 2945 kPa | 0.05344
509.85 K, 2950 kPa | 0.05378
509.85 K, 2955 kPa | 0.05395
509.85 K, 2960 kPa | 0.05431
